Experimental data published in patent US20090044291A1, “DROUGHT-RESISTANT PLANTS AND METHOD FOR PRODUCING THE PLANTS” (D-Helix, priority 2006, published 2009).
Values belong to the molecule of their own block, whether it stands above or below them.

Experiments:
[1] = test system: inducible RNAi transgenic plants (ABAR/CHLH expression); experiment: Induction of RNAi by 17beta-estradiol in inducible RNAi lines; assay type: in vivo, Arabidopsis thaliana; conditions: 10 μM 17beta-estradiol
Text: These constructs were introduced in Agrobacterium tumefaciens GV3101 strain and transformed into plants by floral infiltration. The homozygous T3 seeds of the transgenic plants were used for analysis. […] The seeds of the gun4-1, gun5-1 and cch mutants were a generous gift from Dr. J. Chory (The Salk Institute, La Jolla, Calif.). The seeds of the mutants hy1-1 (ABRC#: CS67), hy2-1 (CS68) and chl-2 (CS3362) were obtained from the Arabidopsis Biological Resource Center (ABRC). Except for the mutants hy1-1 and hy2-1 with the ecotype Ler as background, all the other mutants were isolated from the ecotype Columbia. Plants were grown in a growth chamber at 20-21° C. on Murashige-Skoog (MS) medium at about 80 μmol photons m^−2 s^−1, or in compost soil at about 120 μmol photons m^−2 s^−1 over a 16-h photoperiod.
For the treatment of seedlings of the inducible RNAi lines with 17beta-estradiol (Sigma) to induce down-regulation of ABAR/CHLH expression, 17beta-estradiol was diluted from 10 mM stock solution prepared in dimethyl sulfoxide (DMSO) to 10 μM, and equivalent volume of DMSO was included in the 17beta-estradiol-free-treated controls. […] The amounts of ABAR/CHLH protein were also determined at the same time by immunoblotting. […] The expression of ABAR/CHLH and some ABA-responsive genes was assessed by real-time PCR.

[2] = molecular target: T1, Arabidopsis ABAR/CHLH (H subunit of Mg-chelatase) (Arabidopsis thaliana, UniProt Q9FNB0); experiment: ABA binding assay with purified yeast-expressed ABAR/CHLH; conditions: purified ABAR, 30 nM [3H]ABA, 1 to 1000-fold molar excess of competitor
T1 construct: 6xHis; made in house; host or cells: Pichia methanolica (Pichia Methanolica Expression kit, Invitrogen)
T1 sequence (Q9FNB0 50-1381): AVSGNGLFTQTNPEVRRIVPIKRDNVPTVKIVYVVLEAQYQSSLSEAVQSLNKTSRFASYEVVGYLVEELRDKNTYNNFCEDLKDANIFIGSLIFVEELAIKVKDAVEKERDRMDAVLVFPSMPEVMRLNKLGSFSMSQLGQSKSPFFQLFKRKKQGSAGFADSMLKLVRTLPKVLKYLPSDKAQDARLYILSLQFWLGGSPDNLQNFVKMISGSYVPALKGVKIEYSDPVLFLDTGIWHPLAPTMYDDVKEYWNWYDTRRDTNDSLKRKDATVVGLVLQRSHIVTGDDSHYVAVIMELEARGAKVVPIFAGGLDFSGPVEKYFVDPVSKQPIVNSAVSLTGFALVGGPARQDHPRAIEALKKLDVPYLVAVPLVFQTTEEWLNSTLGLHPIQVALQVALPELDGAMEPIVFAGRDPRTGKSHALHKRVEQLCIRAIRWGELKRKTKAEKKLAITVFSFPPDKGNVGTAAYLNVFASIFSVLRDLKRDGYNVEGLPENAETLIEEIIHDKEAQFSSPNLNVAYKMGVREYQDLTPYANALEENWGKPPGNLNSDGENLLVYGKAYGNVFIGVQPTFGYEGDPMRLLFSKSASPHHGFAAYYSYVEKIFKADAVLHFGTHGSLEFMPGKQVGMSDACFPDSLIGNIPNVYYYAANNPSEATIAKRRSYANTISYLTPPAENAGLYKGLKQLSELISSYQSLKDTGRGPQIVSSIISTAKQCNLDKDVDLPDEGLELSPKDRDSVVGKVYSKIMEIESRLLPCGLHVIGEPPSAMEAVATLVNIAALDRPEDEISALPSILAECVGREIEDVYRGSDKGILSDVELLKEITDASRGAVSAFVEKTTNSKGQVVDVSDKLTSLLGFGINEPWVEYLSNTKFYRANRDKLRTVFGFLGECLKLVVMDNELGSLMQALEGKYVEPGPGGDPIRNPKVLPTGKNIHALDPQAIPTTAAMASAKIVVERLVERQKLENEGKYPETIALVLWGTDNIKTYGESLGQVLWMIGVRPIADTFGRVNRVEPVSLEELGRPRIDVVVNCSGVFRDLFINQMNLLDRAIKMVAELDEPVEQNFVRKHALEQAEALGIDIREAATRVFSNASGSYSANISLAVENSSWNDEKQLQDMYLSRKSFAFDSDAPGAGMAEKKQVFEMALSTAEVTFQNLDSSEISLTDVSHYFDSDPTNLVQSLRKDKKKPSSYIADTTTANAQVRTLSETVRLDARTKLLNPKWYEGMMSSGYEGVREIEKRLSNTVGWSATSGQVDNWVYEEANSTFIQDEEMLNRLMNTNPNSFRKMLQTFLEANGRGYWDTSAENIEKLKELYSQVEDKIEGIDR
Method: Full-length ABAR/CHLH coding sequence was PCR-amplified with forward primer 5′-[…]-3′ (SEQ ID NO:30) and reverse primer 5′-[…]-3′ (SEQ ID NO:31). The recombinant ABAR/CHLH was expressed in yeast as a fusion protein with a 6×His (SEQ ID NO:32) tag by using Pichia Methanolica Expression kit (Invitrogen) and the fusion protein was affinity-purified according to manufacturer's instructions.
The ABA-binding activity of ABAR was assayed according to the previously described procedures (Zhang, D. P. et al., Plant physiol. 128:714-725 (2002)) with modifications. The binding medium (medium A) contained 50 mM Tris-HCl (pH 7.0), 2 mM MgCl2, 1 mM CaCl2, and 250 mM mannitol. The medium for extracting the Arabidopsis natural ABAR/CHLH protein (medium B) was the medium A supplemented with 2 mM 1,4-dithiothreitol (DTT), 1 mM phenylmethyl sulfonyl fluoride (PMSF), […] leupeptin, and […] pepstin A but minus 250 mM mannitol. [^3H](+)ABA (American Radiolabeled Chemicals, 2.37×10^12 Bq mmol^−1, purity 98.4%) at 30 nM, or at a step gradient of concentrations from 0 to 70 nM (when analyzing ABA binding kinetics, see FIG. 1a, d1), together with 2 μg purified yeast-expressed ABAR/CHLH protein or 50 μg proteins of the crude extracts from two-week-old Arabidopsis seedlings, was added into the medium A. The total volume for the binding assays was adjusted to 200 μl. The mixtures were incubated at 25° C. for 30 min, and then quickly placed on ice. Following the addition of 100 μl 0.5% (w/v) Dextran T70-coated charcoal (DCC) to remove the free [^3H]ABA by adsorption, the mixtures were maintained on ice for 5 min, and then centrifuged to remove DCC before the radioactivity in the supernatant was counted. The specific binding was determined by the difference between the radioactivity bound to the immuno-purified ABAR protein or crude extracts of Arabidopsis seedlings incubated only with [^3H]ABA (total binding) and radioactivity bound in the presence of 1,000-fold molar excess of unlabeled (+)-ABA (Sigma; non-specific binding. Non-specific binding in all the assays was lower than 10% of the total binding, see FIG. 1a, d1). The unlabeled ABA was added into the incubation medium at the same time with [^3H]ABA. The ABA-binding activity of the crude ABA-binding protein from Arabidopsis seedling was expressed as the number of nanomoles of [^3H]ABA specifically bound per gram of protein, and that of the immuno-purified ABAR protein as the number of moles of [^3H]ABA per mole of protein. The stereo-specificity of the ABA-binding was assayed as described previously (Zhang, D. P. et al., Plant physiol. 128:714-725 (2002)). […] The conditions of incubation were the same as described above (the incubation medium containing 30 nM [^3H]ABA), and the two ABA isomers and (+)-ABA were assayed in the concentrations ranging from 1 to 1000-fold molar excess of [^3H]ABA.

[3] = molecular target: T2, natural ABAR/CHLH protein (Arabidopsis thaliana, UniProt Q9FNB0); experiment: Pull-down assay with anti-ABAR serum; assay type: binding; conditions: 30 nM [3H](+)ABA
T2 construct: 50 μg proteins of the crude extracts from two-week-old Arabidopsis seedlings; from tissue; host or cells: crude extracts of two-week-old Arabidopsis seedlings / leaves of gl1 (WT), RNAi line 12 and overexpressor line 1
T2 sequence (Q9FNB0 50-1381): T1 sequence (Q9FNB0 50-1381)
Method: The pull down assay was done as follows to detect ABA binding to the natural ABAR/CHLH protein. Total proteins were extracted from two-week-old Arabidopsis seedlings with the medium C composed of the medium B supplemented with 250 mM mannitol. The crude extracts (3 mg total proteins) was incubated by gently shaking in the medium C (400 μl) containing 30 nM [^3H](+)ABA at 4° C. for 2 h, and the anti-ABAR^N serum (10 μg, described below) was added into the medium for a further incubation at 4° C. for 2 h, and then the medium was supplemented by 100 μl 25% (v/v) protein A-agarose (Santa Cruz) for a final incubation at 4° C. for 2 h. Following the incubation, protein A-agarose was recovered by a brief centrifugation and washed with 1 ml medium C. The pellets were resuspended in […] water and mixed with scintillation fluid before the radioactivity (d.p.m., disintegrations per minute) of the bound [^3H](+)ABA was measured.
Three independent control experiments were performed for the pull down assays. A control was done by addition of the same amounts of mouse preimmune serum instead of the antiserum to the medium of the above-described pull down assay in the extracts from the leaves of wild-type plants. […]

gl1 plants = experiment: Treatments with norflurazon and chloramphenicol; assay type: in vivo, Arabidopsis thaliana
Method: The reagent chloramphenicol (Sigma; CP) was diluted from 100 mg/ml stock solutions prepared in ethanol to 150 μg/ml, and equivalent volume of ethanol was included in the chloramphenicol-free-treated controls. For norflurazon (Sigma; Nf) treatment, Nf was diluted from 100 mM stock solutions prepared in DMSO to 3 μM, and equivalent volume of DMSO was included in the Nf-free-treated controls. The 3-week-old seedlings were treated with CP or Nf by irrigation of either 150 μg/ml CP or 3 μM Nf dissolved both in distilled water. Stomatal response to exogenous (±)-ABA was assayed at different time intervals after the application of the reagents, and the amounts of ABAR/CHLH protein were immuno-determined at the same time.
ABA contents in tissues were assayed by radioimmunoassay method as described previously (Zhang, D. P. et al., Plant physiol. 128:714-725 (2002)).

Molecule: C[C@]12CC[C@@H]3c4ccc(O)cc4CC[C@H]3[C@@H]1CC[C@@H]2O [17beta-estradiol]
ABAR transcript and product / ABAR levels [1]: significant decline
ABAR transcript and product / ABAR levels ([1]; listed as 17beta-oestradiol): decrease

Molecule: CC1=CC(=O)CC(C)(C)C1(O)/C=C/C(C)=C\C(=O)O (single isomer, unassigned; (-)) [(−)-ABA]
displacement of [3H](+)-ABA binding [2]: not

displacement of [3H](+)-ABA binding [2]: not
Molecule: CC(C=CC1(O)C(C)=CC(=O)CC1(C)C)=CC(=O)O (stereo not drawn) [trans-ABA]

displacement of [3H](+)-ABA binding [2]: efficient displacement
displacement of [3H]ABA / stereospecificity of pulled-down ABA-binding activity [3]: highly stereospecific
Molecule: (+)-ABA

Molecule: CNc1cnn(-c2cccc(C(F)(F)F)c2)c(=O)c1Cl [norflurazon]
ABA contents (gl1 plants; Nf-treated plants, 3 μM by irrigation): remained unchanged

Molecule: O=C(N[C@H](CO)[C@H](O)c1ccc([N+](=O)[O-])cc1)C(Cl)Cl [chloramphenicol]
ABA contents (gl1 plants; CP-treated plants, 150 μg/ml by irrigation): remained unchanged
ABAR levels (gl1 plants; after CP treatment (FIG. 9)): decrease
stomatal movement response to ABA (gl1 plants; after CP treatment (FIG. 9), 10 μM (±)-ABA): ABA-insensitive
